According to publication PMC3827198, “Characterisation of AmphiAmR11, an Amphioxus (Branchiostoma floridae) D2-Dopamine-Like G Protein-Coupled Receptor” (PLoS ONE, 2013):
Where a name gives a salt, the structure may show the parent alone.

Legend:
CHO cell cyclic AMP = CHO cell cyclic AMP level after forskolin; type: cell-based, Chinese hamster; settings: 10 µM forskolin; basal 5.1 ± 1.7
Experimental: cAMP levels in stably transfected CHO-K1 cells were determined as described previously, except 100 µM isobutylmethylxanthine (IBMX) was used. cAMP levels are represented as a percentage of basal samples unless otherwise stated. Student’s T-test (two-tailed and unpaired) was used to test for significance. Unless otherwise stated, all data are shown as mean ± SEM. Each data point plotted was the mean of data obtained from at least three experiments. Within each experiment three separate replicate wells were analysed for each condition and the cAMP assays on each of the wells was carried out in duplicate.
Forskolin was used both to increase basal cAMP levels to make it easier to detect increases and decreases in cAMP levels in the same experiments and also to potentiate responses to agonists to more accurately determine their threshold effects [see 22]. A non-saturating 10 µM concentration of forskolin was used. Basal levels of CHO cell cyclic AMP were 5.1 ± 1.7 pmoles / mg protein (n = 3) and these were raised to 1053.7 ± 4.8 pmoles / mg protein after exposure to 10 µM forskolin. Protein levels were determined using a Bradford assay.

AmphiAmR11 [1] = molecular target: T1, AmphiAmR11 (Branchiostoma floridae, UniProt A0PF35); experiment: Block of tyramine-induced inhibition of forskolin-stimulated cAMP levels in AmphiAmR11-expressing CHO-K1 cells; type: cell-based; settings: 1 μM antagonist, 30 nM tyramine, 10 µM forskolin
AmphiAmR4 = tested on: AmphiAmR4; parameters: method as in PMID 23183848; settings: cited from earlier work
AmphiAmR11 [2] = molecular target: T1, AmphiAmR11; experiment: ERK1/2 phosphorylation in AmphiAmR11-expressing CHO-K1 cells (Western blotting); type: cell-based; settings: 1 μM antagonist
AmphiAmR11 [3] = molecular target: T1, AmphiAmR11; experiment: Block of dopamine-induced ERK1/2 activation in AmphiAmR11-expressing CHO-K1 cells by antagonists; type: cell-based; settings: 1 µM antagonist, 10 nM dopamine, 5 min
[4] = tested on: OctβRs, CG6989, CG6919 and CG7078; parameters: method as in PMID 15998303; settings: cited from earlier work

T1 sequence (A0PF35 entry or part of it): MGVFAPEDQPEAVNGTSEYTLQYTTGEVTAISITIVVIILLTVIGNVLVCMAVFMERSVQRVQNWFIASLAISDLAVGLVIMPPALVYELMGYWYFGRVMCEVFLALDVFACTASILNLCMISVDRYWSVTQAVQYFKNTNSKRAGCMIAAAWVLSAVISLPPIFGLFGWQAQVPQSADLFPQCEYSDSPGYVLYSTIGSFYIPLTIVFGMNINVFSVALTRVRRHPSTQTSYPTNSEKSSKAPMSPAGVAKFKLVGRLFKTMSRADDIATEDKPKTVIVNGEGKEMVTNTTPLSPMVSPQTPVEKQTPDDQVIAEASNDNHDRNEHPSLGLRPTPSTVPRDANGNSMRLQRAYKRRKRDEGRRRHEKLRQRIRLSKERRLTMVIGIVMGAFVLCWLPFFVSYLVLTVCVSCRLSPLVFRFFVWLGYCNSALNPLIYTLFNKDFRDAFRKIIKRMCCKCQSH

C=C[C@@]1(C)CC(=O)[C@]2(O)[C@@]3(C)[C@@H](O)CCC(C)(C)[C@@H]3[C@H](O)[C@H](OC(C)=O)[C@@]2(C)O1 [forskolin, Forskolin]
CHO cell cyclic AMP level after exposure to forskolin (CHO cell cyclic AMP): 1053.7 ± 4.8 pmoles / mg protein

Cc1ccc(N(CC2=NCCN2)c2cccc(O)c2)cc1 [phentolamine, phentolamine hydrochloride]
Block of tyramine-induced inhibition of forskolin-stimulated cAMP levels (AmphiAmR11 [1]): fully block | Agonist activity at AmphiAmR4 (AmphiAmR4): agonist properties | Effect of antagonist on ERK1/2 phosphorylation in the absence of dopamine (AmphiAmR11 [2]): did not exhibit any agonistic properties | Block of dopamine-induced ERK1/2 activation (AmphiAmR11 [3]): fully block | Agonist properties at Drosophila OctβRs [4]: agonist properties
